Reference: US20250002463A1, “NEW SALT FORMS OF AMILORIDE AND ITS DERIVATIVES FOR PHARMACEUTICAL USE” (PSOMRI Holding AB, priority 2021, published 2025)
“And” between values parts separate entries of the source, which are not always exact repeats. Equal entries are not always repeated.

Experiments:
[1] = Physical stability under Accelerated Aging Conditions (AAC, 40° C./75% RH, 2 days), HT-XRPD; settings: for Physically stable after AAC: Example 1; for Physical Stability: AAC 40° C./75% RH, 2 days, re-analyzed by HT-XRPD
[2] = Hygroscopicity by Dynamic Vapor Sorption (DVS); format: physicochemical; settings: for classification of hygroscopic behaviour: based on water vapour uptake at 25° C./80% RH
Protocol: The hygroscopic behaviour of the salts was evaluated through Dynamic Vapor Sorption (DVS) measurements with an RH profile 40-95-0-40% at 25° C. and a dm/dt of 0.002. The classification of the hygroscopic behaviour is based on the water vapour uptake at 25° C./80% RH in first adsorption cycle of sorption isotherm.

[3] = Polymorphism: solid forms found in salt screen by HT-XRPD; format: physicochemical; settings: Example 1 salt screen in MeOH, DME, THF
Protocol: (§1) The precipitated solids were analyzed by high throughput X-ray powder diffractometry (HT XRPD). Liquid phases (both solutions and mother liquors) were evaporated at ambient conditions and the residual solids were analyzed by HT XRPD.
The salt screen experiments were carried out in methanol (MeOH), 1,2-dimethoxyethane (DME) and tetrahydrofuran (THF).

[4] = Aqueous solubility at RT, Example 2 (water aliquot addition up to 1600 μL); format: physicochemical; settings: for dissolution in water: water aliquots up to 1600 μL; for dissolution in water after heating: suspension in 1600 μL water heated to 50° C. for 15 min
Protocol: Aqueous solubility was determined for the anhydrous and hydrated salt forms, as well as for the salts found after the stability study. Aliquots of water were added to the solid salts until dissolution occurred or 1600 μL of water was added. The lactate salt was taken along in the solubility studies as a reference. […] The results (in mg/mL free base dissolved for better comparison between salt forms) of the solubility determination performed in water are reported in Table 9.
Upon completion of the solubility determination, the remaining solids were separated from the liquid phases and allowed to air dry. Dried solids were analyzed by HT-XRPD.

[5] = Crystallinity of salt forms by HT-XRPD; format: physicochemical; settings: salt screen solid forms
Protocol: as §1
XRPD patterns were obtained using the Ardena T2 high-throughput XRPD set-up. The plates were mounted on a Bruker General Area Detector Diffraction System (GADDS) equipped with a VÅNTEC-500 gas area detector corrected for intensity and geometric variations. The calibration of the measurement accuracy (peaks position) was performed using NIST SRM1976 standard (Corundum).
No background subtraction or curve smoothing was applied to the XRPD patterns.

[6] = Physio-chemical stability study, open container 25° C./60% RH and 40° C./75% RH (UPLC, TGMS, HT-XRPD); format: physicochemical; settings: for UPLC 1 week / UPLC 3 weeks / UPLC 3 days: chemical purity
Protocol: Open container at 25° C. and 60% RH • 2. Open container at 40° C. and 75% RH

[7] = Intrinsic dissolution rate (rotating disc, μDiss) in water and FaSSIF; format: physicochemical; settings: for IDR (mg/cm^2/min) Individual: single disc
Protocol: Rotating disc intrinsic dissolution determinations were performed with a μDiss apparatus (Pion, USA) equipped with 6 independent glass fiber probes each connected to a diode area. Before the start of the experiment the probes were calibrated using the spectrum of a Mercury 362 nm pen-ray lamp. Discs were prepared in a passivated aluminum dye with a mini-IDR press (Heath Scientific, UK).
Six dilutions of benzamil lactate salt were prepared in the dissolution media in the range from 0 to 0.5 mg/mL, and the solutions were stirred with a cross-shaped magnetic stirrer. These dilutions were used for the calibration curve which is used for the calculation of the amount of benzamil in solution. Moreover, the solutions were used to select the wavelength at which the samples were to be measured and to select the proper path length.
The dyes were placed in their Teflon holder magnet stirrer and placed into 20 mL glass vials. Before to the sample measurement, a blank of each media was taken in the respective channel. The experiment started by the gentle addition of the pre-warmed dissolution media. Vials were incubated at 37° C. under continuous stirring at 100 rpm for a maximum of 4 h. UV absorption was measured with the in-line probes at regular intervals. Upon completion of the experiment the pH of the solution was determined. Concentrations of API in solution were calculated with use of the calibration curve and plotted against time. Dissolution rates were calculated over the linear parts of the curves. All dissolution rate experiments were done in triplicate except for TFA1 which were done in duplicate due to the lack of material.

[8] = Kinetic and thermodynamic solubility in water at 37° C. (1 h and 18 h, UPLC)
physchem = experiment: physchem
Protocol: The aqueous solubility of the salts was estimated qualitatively by the solvent aliquot addition method. Aliquots of water up to 500-600 μL were added to approximately 5 mg of salt. The solubility of the free base was also estimated.
The suspensions were let equilibrating at room temperature for 24 h. Afterwards, solids were separated from the liquid phases. The liquid phases were filtered and analyzed by HPLC to determine the solubility. The pH of solutions/mother liquors was also measured.
Suspensions of the two salts were prepared in water with a concentration of 9-10 mg/mL. The mixtures were let equilibrating at RT for 24 h. Afterwards, solids were separated from the liquid phases. The liquid phases were filtered and analyzed by HPLC to determine the solubility. The pH of mother liquors was also measured.

[9] = Example 2, 40° C./75% RH for 2 days
[10] = open container 25° C. and 60% RH
[11] = open container 40° C. and 75% RH
[12] = water, 37° C., 30 mg/ml suspension

N=C(NCc1ccccc1)NC(=O)c1nc(Cl)c(N)nc1N.O=C(O)c1ccccc1 [BNZ1]
Physically stable after AAC ([1]; 40° C./75% RH for 2 days): physically stable and Yes
water vapour uptake ([2]; 25° C./80% RH, first adsorption cycle): 0.1%
classification of hygroscopic behaviour [2]: non hygroscopic
Polymorphism [3]: Yes

CS(=O)(=O)O.NC(=NC(=O)c1nc(Cl)c(N)nc1N)NCc1ccccc1 [MES1]
Physical Stability [1]: Stable
physical stability upon exposure to AAC [1, 9]: physically stable
aqueous solubility compared with starting material (LAC1) ([4]; RT): better solubility value than the starting material (LAC1)
behaviour after full dissolution in water ([4]; RT): precipitation was observed after full dissolution
dissolution in water ([4]; RT): Full dissolution
behaviour in repeated aqueous solubility determination ([4]; aiming for 50 mg/ml, RT): quickly dissolved at RT and after 15 min it crashed out again as a white solid
Crystallinity [5]: Good

NC(=NC(=O)c1nc(Cl)c(N)nc1N)NCc1ccccc1.O=[N+]([O-])O [NIT5]
classification of hygroscopic behaviour [2]: slightly hygroscopic
Polymorphism [3]: Yes

NC(=NCc1ccccc1)NC(=O)c1nc(Cl)c(N)nc1N.O=C(O)C(F)(F)F [TFA2]
Physically stable? ([1]; AAC, 2 days at 40° C. and 75% RH, solids from thermocycling): Yes
physical stability upon exposure to AAC ([1]; Example 3 thermocycling solids, 2 days at 40° C. and 75% RH): physically stable
UPLC t0 ([6]; chemical purity at start of stability study): 99.1% and 100%
UPLC 1 week [6, 10]: 99.9% and 100%
UPLC 3 weeks [6, 10]: 100%
UPLC 3 days [6, 10]: 99.9% and 100%
UPLC 1 week [6, 11]: 100%
UPLC 3 weeks [6, 11]: 100%
UPLC 3 days [6, 11]: 99.9% and 100%
physical and chemical stability ([6]; incubation for 3 weeks at 25° C./60% RH and 40° C./75% RH): physically and chemically stable
TGMS 1 week [6, 10]: 0.1% water and <0.1 % water
XRPD 1 week [6, 10]: TFA2 and TFA1
TGMS 3 weeks [6, 10]: <0.1% water
XRPD 3 weeks [6, 10]: TFA2
XRPD 3 days [6, 10]: TFA2 and TFA1
TGMS 1 week [6, 11]: 0.1% water and <0.1 % water
XRPD 1 week [6, 11]: TFA2 and TFA1
TGMS 3 weeks [6, 11]: <0.1% water
XRPD 3 weeks [6, 11]: TFA2
XRPD 3 days [6, 11]: TFA2 and TFA1
XRPD t0 ([6]; start of stability study): TFA2 and TFA1
IDR (mg/cm^2/min) Average ([7]; FaSSIF, 37° C., 100 rpm): 0.14 ± 0.004 mg/cm^2/min
IDR (mg/cm^2/min) Individual ([7]; FaSSIF, 37° C., 100 rpm): 0.145 mg/cm^2/min and 0.143 mg/cm^2/min and 0.138 mg/cm^2/min
IDR (mg/cm^2/min) Average ([7]; Water, 37° C., 100 rpm): 0.13 ± 0.1 mg/cm^2/min
IDR (mg/cm^2/min) Individual ([7]; Water, 37° C., 100 rpm): 0.116 mg/cm^2/min and 0.143 mg/cm^2/min and 0.130 mg/cm^2/min
state of tablet ([7]; after about 4 h, 37° C.): still not completely dissolved
IDR difference to LAC1 ([7]; in FaSSIF): about 4 fold
Intrinsic Dissolution Rate (IDR) ([7]; water, 37° C., 100 rpm, linear part (LAC1 1 to 36 min; TFA 10-100 min)): 0.13±0.01 mg/cm^2/min
XRPD 1 h Amb. ([8]; residual solid after 1 h in water at 37° C., ambient-dried): TFA2
XRPD 1 h Vac. ([8]; residual solid after 1 h in water at 37° C., vacuum-dried): TFA2
XRPD 18 h Amb. ([8]; residual solid after 18 h in water at 37° C., ambient-dried): TFA2
XRPD 18 h Vac. ([8]; residual solid after 18 h in water at 37° C., vacuum-dried): TFA2
pH after 10 min [8, 12]: 6.0
pH after 1 h [8, 12]: 6.2
Solubility (mg/mL) 1 h ([8]; water, 37° C., 1 h (kinetic), UPLC): 2.6 mg/mL
Solubility (mg/mL) 18 h ([8]; water, 37° C., 18 h (thermodynamic), UPLC): 1.6 mg/mL

Br.N=C(NCc1ccccc1)NC(=O)c1nc(Cl)c(N)nc1N [HBR1]
Physical Stability [1]: Stable
physical stability upon exposure to AAC [1, 9]: physically stable
dissolution in water after heating [4]: dissolved
Crystallinity [5]: Moderate

CCC(=O)O.NC(=NC(=O)c1nc(Cl)c(N)nc1N)NCc1ccccc1 [PRO2]
dissolution in water after heating [4]: dissolved
Crystallinity [5]: Moderate

NC(=NC(=O)c1nc(Cl)c(N)nc1N)NCc1ccccc1.O=P(O)(O)O [PHO2]
Physically stable after AAC ([1]; 40° C./75% RH for 2 days): physically stable and Yes
classification of hygroscopic behaviour [2]: slightly hygroscopic
Polymorphism [3]: Yes

Cc1ccc(S(=O)(=O)O)cc1.NC(=NC(=O)c1nc(Cl)c(N)nc1N)NCc1ccccc1 [TOS1]
Physically stable after AAC ([1]; 40° C./75% RH for 2 days): physically stable and Yes
classification of hygroscopic behaviour [2]: slightly hygroscopic
Polymorphism [3]: Unclear

NC(=NC(=O)c1nc(Cl)c(N)nc1N)NCc1ccccc1.O=C(O)CC(=O)O [MAO1]
Physical Stability [1]: Stable
physical stability upon exposure to AAC [1, 9]: physically stable
dissolution in water after heating [4]: dissolved
Crystallinity [5]: Good

CCCC(=O)O.NC(=NC(=O)c1nc(Cl)c(N)nc1N)NCc1ccccc1 [BUT1]
Physical Stability [1]: Stable
physical stability upon exposure to AAC [1, 9]: physically stable
dissolution in water ([4]; RT): Full dissolution
Crystallinity [5]: Good

NC(=NC(=O)c1nc(Cl)c(N)nc1N)NCc1ccccc1.O=CO [FOR3]
dissolution in water after heating [4]: dissolved
Crystallinity [5]: Good

Cl.NC(=NC(=O)c1nc(Cl)c(N)nc1N)NCc1ccccc1 [Mono-HCl (ref)]
Concentration FB (physchem): 2400 to 3000 µg/mL

N=C(NCc1ccccc1)NC(=O)c1nc(Cl)c(N)nc1N.O=C(O)c1ccccc1 [BNZ2]
Physically stable after AAC ([1]; 40° C./75% RH for 2 days): physically stable and Yes
classification of hygroscopic behaviour [2]: slightly hygroscopic
Polymorphism [3]: Yes
